Columns and labels:
Cor a 1.0101 = molecular target: T1, Cor a 1.0101 (Corylus avellana, UniProt Q08407); assay: 1H, […] HSQC screening; type: binding; conditions: 60 µM protein, at least 5-fold ligand excess, pH 7.5
T1 construct: recombinant from E. coli, 15N labelled
T1 sequence (Q08407 2-160): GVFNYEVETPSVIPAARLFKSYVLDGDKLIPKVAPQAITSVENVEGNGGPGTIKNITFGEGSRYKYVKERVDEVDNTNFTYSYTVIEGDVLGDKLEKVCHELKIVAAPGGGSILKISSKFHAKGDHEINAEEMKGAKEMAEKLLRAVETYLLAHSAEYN

Cor a 1.0302 = molecular target: T2, Cor a 1.0302 (Corylus avellana, UniProt A0AA49EHN2); assay: 1H, […] HSQC screening; type: binding; conditions: 60 µM protein, at least 5-fold ligand excess, pH 7.5
T2 construct: recombinant from E. coli, 15N labelled
T2 sequence (A0AA49EHN2 1-159): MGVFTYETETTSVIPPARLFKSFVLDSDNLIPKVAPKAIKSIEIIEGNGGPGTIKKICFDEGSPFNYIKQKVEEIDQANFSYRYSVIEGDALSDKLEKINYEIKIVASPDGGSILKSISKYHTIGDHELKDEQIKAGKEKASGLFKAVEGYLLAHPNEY

Structure (SMILES)	1H,15N HSQC screening (Cor a 1.0101)	1H,15N HSQC screening (Cor a 1.0302)
O=c1c(O[C@@H]2O[C@H](CO)[C@@H](O)[C@H](O)[C@H]2O)c(-c2ccc(O)c(O)c2)oc2cc(O)cc(O)c12 [Q3OGlc]	All the other isoallergens bound to Q3OGlc, Q3OGal, and K3OR.	All the other isoallergens bound to Q3OGlc, Q3OGal, and K3OR.
C[C@@H]1O[C@@H](Oc2c(-c3ccc(O)cc3)oc3cc(O)cc(O)c3c2=O)[C@H](O)[C@H](O)[C@H]1O [K3OR]	All the other isoallergens bound to Q3OGlc, Q3OGal, and K3OR.	–
